In the supplement of paper PMC10307832:

What was measured:
Experiment in all cases: relative viability (nuclei count vs DMSO), 5 days (fraction); higher = more cells survive
Olaparib + Decitabine = compound: O=C(c1cc(Cc2n[nH]c(=O)c3ccccc23)ccc1F)N1CCN(C(=O)C2CC2)CC1 [Olaparib] + Nc1ncn([C@H]2C[C@H](O)[C@@H](CO)O2)c(=O)n1 [Decitabine] (partner 2 µM)
In short: (§1)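 Relative viability divides the nuclei count in treated wells by that in vehicle wells. Lung cancer cell lines were seeded in 1536-well plates, dosed by pin tool the next day, and fixed and stained after 5 days in one step with final 0.05% Triton X-100, 1% formaldehyde and 1 ug/ml Hoechst. Dosing was a single drug or a fixed anchor-drug dose plus five library-drug doses (not always all listed) in √10 steps, and values are medians of duplicate plates imaged at 4×.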

Crizotinib + Navitoclax = compound: C[C@@H](Oc1cc(-c2cnn(C3CCNCC3)c2)cnc1N)c1c(Cl)ccc(F)c1Cl [Crizotinib] + CC1(C)CCC(c2ccc(Cl)cc2)=C(CN2CCN(c3ccc(C(=O)NS(=O)(=O)c4ccc(N[C@H](CCN5CCOCC5)CSc5ccccc5)c(S(=O)(=O)C(F)(F)F)c4)cc3)CC2)C1 [Navitoclax] (partner 0.5 µM)
In short: as §1

Crizotinib + Trametinib = compound: C[C@@H](Oc1cc(-c2cnn(C3CCNCC3)c2)cnc1N)c1c(Cl)ccc(F)c1Cl [Crizotinib] + CC(=O)Nc1cccc(-n2c(=O)n(C3CC3)c(=O)c3c(Nc4ccc(I)cc4F)n(C)c(=O)c(C)c32)c1 [Trametinib] (partner 0.02 µM)
In short: as §1

Carfilzomib + Dasatinib = compound: CC(C)C[C@H](NC(=O)[C@H](CCc1ccccc1)NC(=O)CN1CCOCC1)C(=O)N[C@@H](Cc1ccccc1)C(=O)N[C@@H](CC(C)C)C(=O)[C@@]1(C)CO1 [Carfilzomib] + Cc1nc(Nc2ncc(C(=O)Nc3c(C)cccc3Cl)s2)cc(N2CCN(CCO)CC2)n1 [Dasatinib] (partner 0.075 µM)
In short: as §1

Row | Cell Line | relative viability (Olaparib + Decitabine; first compound 0.08 µM) | relative viability (Olaparib + Decitabine; first compound 0.253 µM) | relative viability (Olaparib + Decitabine; first compound 2.53 µM) | relative viability (Olaparib + Decitabine; first compound 8 µM) | relative viability (Crizotinib + Navitoclax; first compound 0.01 µM) | relative viability (Crizotinib + Navitoclax; first compound 0.03162 µM) | relative viability (Crizotinib + Navitoclax; first compound 0.1 µM) | relative viability (Crizotinib + Navitoclax; first compound 1 µM) | relative viability (Crizotinib + Trametinib; first compound 0.01 µM) | relative viability (Crizotinib + Trametinib; first compound 0.03162 µM) | relative viability (Crizotinib + Trametinib; first compound 0.1 µM) | relative viability (Crizotinib + Trametinib; first compound 1 µM) | relative viability (Carfilzomib + Dasatinib; first compound 0.001 µM) | relative viability (Carfilzomib + Dasatinib; first compound 0.003162 µM) | relative viability (Carfilzomib + Dasatinib; first compound 0.01 µM) | relative viability (Carfilzomib + Dasatinib; first compound 0.03162 µM) | relative viability (Carfilzomib + Dasatinib; first compound 0.1 µM) | relative viability (Crizotinib + Navitoclax; first compound 0.3162 µM) | relative viability (Crizotinib + Trametinib; first compound 0.3162 µM)
1 | NCI-H23 | 0.336 | 0.313 | 0.259 | 0.277 | 0.85 | 0.738 | 0.688 | 0.816 | 0.341 | 0.367 | 0.329 | 0.393 | 0.811 | 0.748 | 0.845 | 0.158 | 0.125 | – | –
2 | H3255 | 0.548 | 0.516 | 0.621 | 0.444 | 0.53 | 0.499 | 0.521 | 0.487 | 0.557 | 0.666 | 0.602 | 0.479 | 0.356 | 0.431 | 0.486 | 0.339 | 0.355 | 0.484 | 0.652
3 | NCI-H1355 | 0.37 | 0.345 | 0.304 | 0.31 | 0.901 | 1.02 | 0.929 | 0.931 | 0.416 | 0.409 | 0.45 | 0.404 | 0.628 | 0.785 | 0.686 | 0.382 | 0.264 | 0.923 | 0.396
4 | UMC-11 | 0.497 | – | 0.405 | 0.4 | 0.285 | 0.308 | 0.306 | 0.365 | 0.7 | 0.751 | 0.683 | 0.985 | 0.52 | 0.412 | 0.415 | 0.393 | 0.184 | 0.282 | 0.227
5 | NCI-H1395 | 0.64 | 0.654 | 0.504 | 0.494 | 1.12 | 0.956 | 1.09 | – | 0.951 | 1.05 | 1.04 | 1.1 | 0.411 | 0.426 | 0.417 | 0.36 | 0.314 | 1.21 | 0.971
6 | EMC-BAC-2 | 0.931 | 0.869 | 0.669 | 0.599 | 1.13 | 1.19 | 1.13 | 1.15 | 0.865 | 0.803 | 0.914 | 0.893 | 0.327 | 0.363 | 0.35 | 0.256 | 0.256 | 1.12 | –
7 | PC-3 [JPC-3] | 0.82 | – | 0.761 | 0.741 | 0.809 | 0.807 | 0.815 | 0.858 | 0.634 | 0.721 | 0.759 | 0.651 | 0.914 | 0.972 | 0.996 | 0.597 | 0.428 | 0.684 | –
8 | NCI-H1734 | 0.418 | 0.311 | 0.237 | 0.229 | 0.888 | 0.81 | 0.844 | – | 0.684 | 0.621 | 0.629 | 0.67 | 0.462 | 0.503 | 0.487 | 0.2 | 0.148 | – | –
9 | HOP-62 | 0.18 | 0.17 | 0.234 | 0.178 | 0.994 | 0.996 | 0.943 | 0.948 | 0.353 | 0.369 | 0.358 | 0.392 | 0.618 | 0.655 | 0.499 | 0.0996 | 0.0979 | – | 0.407
10 | HARA | 0.437 | 0.397 | 0.396 | 0.338 | 1.13 | 1.08 | 1.13 | 1.1 | 0.646 | 0.525 | 0.958 | 0.564 | 0.324 | 0.312 | 0.32 | 0.0493 | 0.0578 | 1.13 | 0.976
11 | NCI-H2023 | 0.172 | 0.143 | 0.135 | 0.126 | 0.98 | 0.985 | 0.994 | – | 0.487 | 0.489 | 0.484 | 0.468 | 0.569 | 0.698 | 0.59 | 0.181 | 0.082 | 0.932 | 0.343
12 | NCI-H1993 | 0.512 | 0.59 | 0.666 | 0.636 | 0.769 | 0.897 | 0.669 | 0.805 | 0.631 | 0.454 | 0.506 | 0.46 | 0.604 | 0.597 | 0.581 | 0.467 | 0.453 | 0.831 | 1.07
13 | NCI-H460 | 0.114 | 0.128 | 0.0907 | 0.062 | – | 1.03 | 1.1 | 1.13 | 0.212 | 0.154 | 0.211 | 0.149 | 0.539 | 0.529 | 0.568 | 0.538 | 0.0417 | 1.2 | 0.165
14 | NCI-H596 | 0.915 | 0.9 | 0.732 | 0.632 | 0.845 | – | – | 0.964 | 0.834 | 0.845 | 0.82 | 0.819 | 0.607 | 0.583 | 0.52 | 0.381 | 0.174 | 1 | 0.888
15 | NCI-H441 | 0.257 | 0.197 | 0.243 | 0.188 | 0.959 | 0.571 | 0.682 | 0.798 | 0.405 | 0.475 | 0.59 | 0.446 | 0.66 | 0.629 | 0.376 | 0.156 | 0.176 | – | 0.382
16 | COR-L 105 | 0.581 | 0.618 | 0.52 | 0.512 | 0.771 | – | 0.908 | 0.76 | 0.426 | 0.463 | 0.413 | 0.43 | 0.409 | 0.393 | 0.319 | 0.235 | 0.167 | 0.871 | 0.41
17 | NCI-H322M | 0.685 | 0.592 | 0.708 | 0.596 | 1.07 | 1.12 | 1.19 | 1.3 | – | 0.507 | 0.482 | 0.554 | 0.272 | 0.264 | 0.255 | 0.271 | 0.232 | 1.13 | 0.493
